Holding throughout (format): cell-based
Experiment [1] concerns VSV-G pseudotyped retrovirus.
Experiment [2] deals with wild type MMLV.
Experiment [3] concerns Ross-River E2-E1 pseudotyped retrovirus.

The structures appear in SMILES notation.

In the case of `CCN(CC)CCCC(C)Nc1ccnc2cc(Cl)ccc12` (centres unmarked) [chloroquine], the “inhibition of VSV-G pseudotyped retrovirus entry” value in experiment [1] is reported as “inhibit”. In addition, the “effect on wild type MMLV entry” value in experiment [2] is “only partially affects”. Also, in experiment [3], the “inhibition of transduction by Ross River glycoprotein-pseudotyped viruses” value is on record as “dramatic inhibition”.
For the compound `Cl.N` [ammonium chloride], the “inhibition of VSV-G pseudotyped retrovirus entry” value in experiment [1] is listed as “inhibit”. The “inhibition of transduction by Ross River glycoprotein-pseudotyped viruses” value in experiment [3] is “dramatic inhibition”.

The record behind these values is patent US7033595B1, “Pseudotyped retroviruses and stable cell lines for their production” (priority 1998, dated 2006).
